Assay results published in patent US20140274969A1 (priority 2013, published 2014).
Read-outs that look alike come from different tables or passages of the source.

Assays:
SCI [1] = details: mice; two 50 mg/kg i.p. doses then three 25 mg/kg doses at 24 h intervals; cited from earlier work
[2] = Description: Subjects were evaluated for adverse events daily while in hospital and at each subsequent clinical evaluation. All serious adverse events (Table 4) were reviewed promptly by a safety monitoring board composed of clinicians and clinician researchers not otherwise involved in this study. A summary of all adverse events was reviewed every 6 months.
The model assumed that any change associated with treatment group was constant over these time points. An interaction term between treatment and injury type was included to allow for the possibility that changes associated with treatment group differed among motor-complete and motor-incomplete injured subjects. ASIA sensory scores were similarly evaluated. ASIA motor, pin-prick and light scores were evaluated by the Shapiro-Wilk normality test and were consistent with a normal distribution. Functional recovery data were compared over all data points. Adverse events were categorized by system and mean numbers of events per patient were compared within each system by ANOVA. All statistical tests were two-tailed (a=0.05). […] The Student t-test was then used to estimate the between group difference that this study was powered to detect with power=0.8 and a=0.05.

[3] = cited from earlier work
SCI [4] = details: rats; 90 mg/kg immediately after SCI then 45 mg/kg every 12 h; cited from earlier work
acute traumatic SCI = experiment: Functional recovery scales (SCIM, FIM, London Handicap, SF36) after SCI; assay type: in vivo, human; details: 6 to 52 weeks after injury
Description: Clin. Exp. Pharmacol. Physiol. 1:299-308). […] Functional outcome was assessed using the Spinal Cord Independence Measure, Functional Independence Measure, London Handicap scale, and Short Form 36 questionnaires administered at 6 weeks, 12 weeks, 26 weeks, and 52 weeks after injury. […] ASIA sensory scores were similarly evaluated. […] Functional recovery data were compared over all data points. […] All statistical tests were two-tailed (a=0.05).

MMP activity = details: cited from earlier work
[5] = cited from earlier work; remark: listed apart in the source
SCI [6] = details: rats; three 30 mg/kg i.p. doses at 30 min, 60 min, 24 h after SCI; 28-day observation; cited from earlier work
[7] = High dose (800 mg tapered by 100 mg each 12 h to 400 mg, 7 days)
[8] = Low dose (200 mg IV twice daily, 7 days)
[9] = long-term administration, global reports

## CN(C)c1ccc(O)c2c1C[C@H]1C[C@H]3[C@H](N(C)C)C(O)=C(C(N)=O)C(=O)[C@@]3(O)C(O)=C1C2=O [minocycline, (2E,4S,4aR,5aS,12aR)-2-(amino-hydroxy-methylidene)-4,7-bis(dimethylamino)-10,11,12a-trihydroxy-4-a,5,5a,6-tetrahydro-4H-tetracene-1,3,12-trione]
SCI [1]
  recovery from SCI: facilitated significant recovery
[2]; [7]
  Autonomic dysreflexia: # of events: 1
  Autonomic dysreflexia: # of subjects: 1
  Cardiac: # of events: 14
  Cardiac: # of subjects: 9
  Deep venous thrombosis: # of events: 1
  Deep venous thrombosis: # of subjects: 1
  Deep venous thrombosis: events/subject: 0.06
  Endocrine: # of events: 0
  Endocrine: # of subjects: 0
  Endocrine: events/subject: 0
  Gastrointestinal: # of events: 36
  Gastrointestinal: # of subjects: 12
  Gastrointestinal: events/subject: 1.88
  Genito-urinary: # of events: 7
  Genito-urinary: # of subjects: 5
  Genito-urinary: events/subject: 0.44
  Haematological: # of events: 9
  Haematological: # of subjects: 6
  Haematological: events/subject: 0.63
  Infectious: # of events: 28
  Infectious: # of subjects: 11
  Infectious: events/subject: 1.38
  Integumentary: # of events: 21
  Integumentary: # of subjects: 11
  Integumentary: events/subject: 1.13
  Musculoskeletal: # of events: 14
  Musculoskeletal: # of subjects: 13
  Musculoskeletal: events/subject: 0.75
  Neurological: # of events: 16
  Neurological: # of subjects: 10
  Neurological: events/subject: 0.56
  Other: # of events: 19
  Other: # of subjects: 11
  Pain: # of events: 31
  Pain: # of subjects: 14
  Psychiatric: # of events: 18
  Psychiatric: # of subjects: 8
  Psychiatric: events/subject: 1.13
  Respiratory: # of events: 13
  Respiratory: # of subjects: 9
  Respiratory: events/subject: 0.81
  Serious adverse events: # of events: 1
  Serious adverse events: # of subjects: 1
  Serious adverse events: events/subject: 0.06
[2]; [8]
  Autonomic dysreflexia: # of events: 0
  Autonomic dysreflexia: # of subjects: 0
  Cardiac: # of events: 5
  Cardiac: # of subjects: 4
  Deep venous thrombosis: # of events: 0
  Deep venous thrombosis: # of subjects: 0
  Deep venous thrombosis: events/subject: 0
  Endocrine: # of events: 1
  Endocrine: # of subjects: 1
  Endocrine: events/subject: 0.2
  Gastrointestinal: # of events: 12
  Gastrointestinal: # of subjects: 5
  Gastrointestinal: events/subject: 2.2
  Genito-urinary: # of events: 0
  Genito-urinary: # of subjects: 0
  Genito-urinary: events/subject: 0
  Haematological: # of events: 2
  Haematological: # of subjects: 2
  Haematological: events/subject: 0.4
  Infectious: # of events: 12
  Infectious: # of subjects: 4
  Infectious: events/subject: 1.8
  Integumentary: # of events: 5
  Integumentary: # of subjects: 4
  Integumentary: events/subject: 1.0
  Musculoskeletal: # of events: 4
  Musculoskeletal: # of subjects: 4
  Musculoskeletal: events/subject: 0.6
  Neurological: # of events: 11
  Neurological: # of subjects: 5
  Neurological: events/subject: 1.6
  Other: # of events: 13
  Other: # of subjects: 5
  Pain: # of events: 10
  Pain: # of subjects: 5
  Psychiatric: # of events: 8
  Psychiatric: # of subjects: 4
  Psychiatric: events/subject: 1.2
  Respiratory: # of events: 5
  Respiratory: # of subjects: 4
  Respiratory: events/subject: 1.0
  Serious adverse events: # of events: 1
  Serious adverse events: # of subjects: 1
  Serious adverse events: events/subject: 0.2
[2]; low-dose (200 mg) or high-dose (400 mg) vs placebo
  adverse events among placebo, low-dose and high-dose groups: did not vary significantly
[3]; humans
  serum concentrations well tolerated: up to 6.2 mg/L
[3]; [9]
  cases of drug induced lupus: 33 cases
  cases of hypersensitivity reaction: 19 cases
  cases of serum sickness-like reaction: 11 cases
  cases of single organ dysfunction: 40 cases
SCI [4]
  functional motor control in the hind limbs: improved
  size of lesions on spinal cords: reduced
Acute traumatic SCI
  functional outcomes (SCIM, FIM, London Handicap Scale, Short Form 36) vs placebo: greater in the minocycline-treated group but the differences were not statistically significant
MMP activity
  inhibition of MMP activity: potent inhibitor
[5]; human, in vivo
  eliminated unchanged through the kidneys: Eight to twelve
  elimination in biologically active form through the feces: 20-35 % of the initial dose
  metabolism to three inactive liver metabolites excreted in urine and feces: 50-60 % of the administered dose
[5]; oral 150 mg
  peak serum concentration: about 2 mg/L
[5]; oral 300 mg
  peak serum concentration: about 4 mg/L
[5]; oral or intravenous administration
  half-life: 16 h
SCI [6]
  recovery in functional hind limb motor control: facilitated significant recovery
